Experimental data published in US20080004561A1, “Method for Treating Oncological, Virulent and Somatic Diseases, Method for Controlling Treatment Efficiency, Pharmaceutical Agents and Composition for Carrying Out Said Treatment” (priority 2005, published 2008).
Entries after “also recorded” stand apart in the source; their conditions may differ.

Assays:
blood plasma DNA = assay: Blood plasma DNA concentration after end of DNase treatment course (Example 2); assay type: in vivo; details: Erlich carcinoma mice
Method: Fresh blood plasma (not more than 3-4 hours after isolation) with anticoagulant (sodium citrate) addition was centrifuged on Ficoll-PlaquePlus (Amersham-Pharmacia) step at 1500 g for 20 minutes at room temperature. Plasma (½ of all amount) was neatly isolated avoiding touching cells sediment on ficoll step and was centrifuged at 10 000 g for 30 minutes to eliminate cells and debris. Supernatant was taken away not touching sediment and up to 1% of sarcosile, up to 50 mM of tris HCl pH 7,6, up to 20 mM EDTA, up to 400 mM NaCl and equal volume of phenol—chloroform mixture 1:1 were added. Received emulsion was incubated at 65° C. for 2 hours than phenol-chloroform was separated by centrifuging at 5000 g during 20 minutes at room temperature. Deproteinization by phenol-chloroform method was identically repeated for three times after what water phase was processed by chloroform and after it by diethyl ether.
Organic solvents' separation was done by centrifuging at 5000 g during 15 minutes. Equal part of isopropanol was added to water phase and incubated during night at 0° C.
After sedimentation nucleic acids were separated by centrifuging at 10 000 g during 30 minutes. […]
DNA was isolated by method that is mentioned above. DNA amount was spectrophotometrically measured. […]

tumor cells = assay: In vitro effect of DNase I on tumor cells' growth; assay type: cell-based; details: DNase I concentration up to 100 mkg/ml
Erlich carcinoma = assay: Influence of DNase administrated twice a day on Erlich tumor growth at mice (Example 1); assay type: in vivo; details: day 3 to 7, 7 day after transplantation
Method: Bovine pancreatic DNase I (Fermentas) and human recombinant DNase I (Dornase; Gentech) were used. DNase I solution for injections were prepared by dissolving of DNase matrix solution in sterile phosphate buffer directly before administration. Cyclophosphamide and Doxorubicin were dissolved according to instruction.
Blood plasma DNA of tumor-bearing mice was received according to technique described above. Highly metastatic and low metastatic stains of mice' Luice lung carcinoma and Erlich carcinoma were used. Cells were cultivated in RPMI-1640 media with adding of 10% embryonic calf serum, 1% penicillin—streptomycin in 5% carbon dioxide atmosphere. For tumor induction in mice, cells were cultivated until the monolayer, than were detached with trypsin-EDTA solution. Cells were washed trice by centrifuging in phosphate buffer and were resuspensed until their concentration have become 0.5×10^7/ml. Viability was defined by inclusion of methylene blue in hemocytometer. Suspensions that contained 95% of viable cells were used for administration to animals.
Mice of C57B1 line and white not thoroughbred mice from “Rappolovo” animal house were used. Weight of animals was 24-26 grams. Animals were contained in cages, for 6-7 mice per one cage on a standard diet without water restriction. LLC cells in dose of 5×10^5 in 100 mkl of phosphate buffer were injected in soft tissues of thigh. Erlich tumor was subcutaneously replanted on the right side by injection of 0.2 ml 10% cells' suspension in isotonic sodium chloride solution.
Influence of DNase I Administrated Twice a Day on Erlich Tumor Growth at Mice
Group 1—10 mice transplanted with Erlich carcinoma (control).
Group 2—10 mice transplanted with Erlich carcinoma. Mice were intraperitoneally injected with DNase at 1 mg/kg dose in […] of phosphate buffer twice a day starting from 3 up to 7 day after tumor transplantation.
Group 3—10 mice transplanted with Erlich carcinoma. Mice were intraperitoneally injected with DNase at 2 mg/kg dose in […] of phosphate buffer twice a day starting from 3 up to 7 day after tumor transplantation.

[1] = test system: Staphylococcus aureus VT-209; assay: Influence of DNase on bacterial biofilm formation on glass (Example 4); assay type: cell-based
Method: (§1) For estimation of possible mechanisms of DNase action on bacteria' interactions with host's organism we have estimated its influence on biofilm formation.
(§2) Experiments were performed on biofilm models, received at laboratory cultivation on the surface of glass. Non-relative Gram-positive (Staphylococcus aureus VT-209) and Gram-negative (Escherichia coli ATCC25922) bacteria were used.
(§3) Bacteria were sowed at 10^9 bacteria/ml concentrations and were incubated at 37° C. during 72 hours on synthetic M9 media that contains additives necessary for used bacteria strains. DNase was added in amount of 100 mkg/ml right after bacteria' inoculation. Identical volume of phosphate buffer was added to control. Selective vials were taken for analysis every 24 hours.
(§4) Glasses were washed by PBS buffer, fixed, stained with methylene blue and studied with the use of light microscopy.

[2] = test system: Escherichia coli ATCC25922; assay: as above; assay type: cell-based
Method: as §1, §2, §3, §4

[3] = test system: DNA from fresh blood serum; assay: Sensitivity of circulating blood DNA to DNase action, electrophoresis (Example 9); assay type: biochemical, volunteers; details: DNA processed by DNase I for 3 hours at 37° C.
Method: DNA from fresh blood serum (mixture of blood received from 5 volunteers ) was isolated by standard phenol-chloroform method.
Sediment of nucleic acids was washed by 70% ethanol and dissolved in tris-EDTA buffer. Spectrophotometry with wave's length 260 nm (SF-46) was used for quantification of DNA. DNA was researched by electrophoresis in 0.8% […] gel with ethidium bromide staining. One part of received DNA was processed by DNase I for 3 hours at 37° C. After electrophoretic separation of processed and not processed DNA it was found out that: […]

[4] = DNase 1 mg/kg intraperitoneally twice a day
[5] = DNase 2 mg/kg intraperitoneally twice a day
[6] = DNase 100 mkg/ml added right after inoculation, 37° C., 72 hours, M9 media, light microscopy
[7] = DNase 100 mkg/ml, control sowings from vials

DNase
Blood plasma DNA concentration (blood plasma DNA; DNase 0.5 mg/kg four times a day): 38.5 ng/mL
Blood plasma DNA concentration (blood plasma DNA; DNase 1 mg/kg twice a day): 55.1 ng/mL
Effect on tumor cells' growth in vitro (tumor cells): does not cause direct cytotoxic effect; also recorded: not seen any suppressive effect
TGI % (Erlich carcinoma; [4]): 61%
Tumor's volume (Erlich carcinoma; [4]): 33 +/− 6
TGI % (Erlich carcinoma; [5]): 60%
Tumor's volume (Erlich carcinoma; [5]): 34 +/− 7
Biofilm formation [1, 6]: normal biofilm was not formed
Colony-forming units (CFU) in comparison with controls [1, 7]: no death of cells
Biofilm formation [2, 6]: normal biofilm was not formed
Colony-forming units (CFU) in comparison with controls [2, 7]: no death of cells
DNA band after electrophoresis [3]: disappeared completely
